Measured values as given in PubChem BioAssay (NCI).
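1) Cells in 96-well plates. 2) Compound, 48 h, 5 concentrations. 3) Linear interpolation between surrounding doses. 4) Unreached endpoint = highest concentration. GI50 is the concentration that inhibits growth by half. TGI denotes the concentration required for complete inhibition of growth.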

Tests used:
Experiment in all cases: NCI tumour cell line growth inhibition, 48 h
[1] = test system: HOP-62 NSCLC
[2] = test system: PC-3 prostate
[3] = test system: HCC-2998 colon
[4] = test system: SK-MEL-28 melanoma
[5] = test system: UACC-62 melanoma
[6] = test system: SN12C renal
[7] = test system: BT-549 breast
[8] = test system: IGROV1 ovarian
[9] = test system: KM12 colon
[10] = test system: OVCAR-5 ovarian

| SMILES | GI50 [1] | TGI [1] | GI50 [2] | TGI [2] | GI50 [3] | TGI [3] | GI50 [4] | TGI [4] | GI50 [5] | TGI [5] | GI50 [6] | TGI [6] | GI50 [7] | TGI [7] | GI50 [8] | TGI [8] | GI50 [9] | TGI [9] | GI50 [10] | TGI [10] |
| --- | --- | --- | --- | --- | --- | --- | --- | --- | --- | --- | --- | --- | --- | --- | --- | --- | --- | --- | --- | --- |
| COc1nc(=O)n(C2C=CC(=O)O2)cc1F (configuration not stated) | 29.7 µM | 81.2 µM | 19.8 µM | 62.4 µM | 12.9 µM | 25.5 µM | 6.92 µM | 20.1 µM | 5.53 µM | 18.7 µM | 11.6 µM | 25.7 µM | 8.29 µM | 24.1 µM | 8.69 µM | 23.2 µM | 11.7 µM | 23.9 µM | 15.2 µM | 28.6 µM |
| CCCCCCn1c(-c2ccc(C(=O)O/N=C(\N)c3ccc4c(c3)OCO4)cc2)nc(-c2ccccc2)c1-c1ccccc1 | 2.11 µM | 4.71 µM | 2.62 µM | 11.3 µM | 2.96 µM | 10.4 µM | 4.47 µM | 22.7 µM | 2.87 µM | 10.5 µM | 1.87 µM | 4.09 µM | 2.02 µM | 5.41 µM | 0.463 µM | 1.93 µM | 3.9 µM | > 100 µM | 2.9 µM | 13.8 µM |
| Nc1nc(Cl)nc2c1ncn2C1CC(O)C(CO)O1 (configuration not stated) |  | 6.8 µM | > 100 µM | > 100 µM |  | > 100 µM |  | > 100 µM |  | 6.15 µM |  | > 100 µM | 0.345 µM | > 100 µM |  | > 100 µM |  | > 100 µM |  | > 100 µM |
| CNc1nc(N)nc(Nc2ccc(I)cc2)c1N=O |  | > 100 µM |  | > 100 µM |  | > 100 µM |  | > 100 µM |  | > 100 µM |  | > 100 µM |  | > 100 µM |  | > 100 µM |  | > 100 µM |  | > 100 µM |
| c1ccc(C2=NOC(c3ccccc3)N2C23CC4CC(CC(C4)C2)C3)cc1 (configuration not stated) |  | > 10 µM |  | > 10 µM |  | > 10 µM |  | > 10 µM |  | > 10 µM |  | > 10 µM |  | > 10 µM |  | > 10 µM |  | > 10 µM |  | > 10 µM |
| COc1cc2c3c(n(C)c(=O)c2cc1OC)-c1cc2c(cc1C3=O)OCO2 |  | > 55 µM |  | > 100 µM |  | > 100 µM |  | > 100 µM |  | 32.4 µM |  | > 100 µM |  | > 100 µM |  | 40.9 µM |  | > 100 µM |  | > 100 µM |
| N#CC(I)CS(=O)(=O)c1ccccc1 (configuration not stated) | 19.3 µM | 38.4 µM | 17 µM | 32.5 µM | 17.7 µM | 31.8 µM | 16.6 µM | 30.7 µM | 16.6 µM | 30.3 µM | 16.1 µM | 29.9 µM | 18.8 µM | 32.9 µM | 16.2 µM | 39.8 µM | 18.9 µM | 34.4 µM | 18.9 µM | 33.6 µM |
| O=C(CC(=O)Nc1ccccc1)NNC(Sc1ccccc1)c1cc(N=Nc2ccc(Br)cc2)ccc1O (configuration not stated) |  | > 10 µM |  | > 10 µM |  | > 10 µM |  | > 10 µM |  | 9.81 µM |  | > 10 µM |  | > 10 µM |  | > 10 µM |  | > 10 µM |  | > 10 µM |
| NNc1ncnc2nc[nH]c12 | 2.25 µM | 10.5 µM | 6.07 µM | > 100 µM | 7.48 µM | > 58.1 µM | 34.6 µM | > 100 µM | 3.05 µM | 39.9 µM | 7.33 µM | > 100 µM | 4.22 µM | > 94.3 µM | 3.56 µM | > 55.1 µM | 3.56 µM | 44.5 µM | 3.18 µM | > 40.4 µM |
| COc1cc2c(cc1OCCCN1CCN(CCCOc3cc4c(cc3OC)C(=O)N3CC(F)(F)C[C@H]3C=N4)CC1)N=C[C@@H]1CC(F)(F)CN1C2=O | 3.17 µM | 6.07 µM | 3.06 µM | 9.74 µM | 5.4 µM | 19.4 µM | 4.28 µM | 15.2 µM | 3.05 µM | 13.2 µM | 4.05 µM | 19.5 µM | 1.95 µM | 5.36 µM | 1.92 µM | 5.13 µM | 4.1 µM | 17.5 µM | 3.83 µM | 11.4 µM |
| COC(=O)C1=CN(CC2=CC(=O)C(C)=CC2=O)C=C(C(=O)OC)C1c1ccccc1OC | 23.5 µM | > 51 µM | 14.9 µM | 29.8 µM | 15.5 µM | 28.9 µM | 28 µM | > 57.5 µM | 13.3 µM | 27.5 µM | 14.8 µM | 32.9 µM | 17.4 µM | 41 µM | 22.3 µM | 57.3 µM | 23.6 µM | > 72.3 µM | 19.7 µM | 34.9 µM |
| Cc1nc2c(Br)cc(Br)cc2c(=O)n1-c1nnc(-c2cccc(Cl)c2Cl)c(N)n1 | 7.08 µM | 28.2 µM | 23.6 µM | > 100 µM | 17.6 µM | 41.3 µM | 65.4 µM | > 100 µM | 13.4 µM | 37.3 µM | 19 µM | 62 µM | 29.3 µM | > 100 µM | 15 µM | 55.1 µM | 11.4 µM | 40.3 µM | 26.6 µM | 74.5 µM |
| CCOc1c(OC)cc(-c2nc3n(n2)C(=O)C(CC)S3)cc1OC (configuration not stated) |  | > 10 µM |  | > 10 µM |  | > 10 µM |  | > 10 µM |  | > 10 µM |  | > 10 µM |  | > 10 µM |  | > 10 µM |  | > 10 µM |  | > 10 µM |
| Nc1c(C(=O)Nc2ccccn2)sc2nc3c(cc12)C(=O)CCC3 | 1.75 µM | > 100 µM | 1.43 µM | > 100 µM | 3.15 µM | > 100 µM | 13.4 µM | > 100 µM | 0.621 µM | > 100 µM | 3.36 µM | > 100 µM | 0.332 µM | > 100 µM | 2.23 µM | > 100 µM | 0.762 µM | > 100 µM | 9.53 µM | > 100 µM |
| C=C(CN(C)Cc1ccccc1)c1ccc(NC(=O)c2ccc(C(=C)CN(C)Cc3ccccc3)cc2)cc1 | 18.8 µM | 36.9 µM | 11 µM | 23 µM | 37.2 µM | > 100 µM | > 100 µM | > 100 µM | 50.2 µM | > 100 µM | > 100 µM | > 100 µM | > 100 µM | > 100 µM | 18.5 µM | 53.2 µM | > 100 µM | > 100 µM | > 100 µM | > 100 µM |
